The text below walks through data of article PMC9386018, “A lymphatic-absorbed multi-targeted kinase inhibitor for myelofibrosis therapy” (Nature Communications, 2022).

Structures are written as SMILES. Values joined by “and” are separate entries in the source; they are usually repeats but may differ in a detail not shown here. Equal entries are not always repeated.

The nature of data set [1]: Compound quantitation in blood and mesenteric lymph nodes. In kind it is in vivo, mouse. The conditions noted are these: mice. As for the experimental part:
Whole blood and mesenteric lymph nodes were collected either 30 min or 4 h following compound administration and stored at −20 °C until future processing and analysis by the University of Michigan Pharmacokinetics Core as above, or as outlined below, to determine compound concentrations in each tissue. […] Data was generated from n ≥ 4 individual animals per compound per study group or dose.
Briefly, acetonitrile was added to a final concentration of 60–80% to bone marrow, whole blood, plasma, lymphatic fluid, lymphatic proteo-lipid sub-fractions, or mesenteric lymph node samples for compound extraction. Extraction was performed by shaking and/or bead rupture using a Precellys Evolution tissue homogenizer (Bertin Technologies SAS). […] Optimization of MS and MS/MS parameters for MRM quantitation and maximum sensitivity of individual compounds was performed using SCIEX Analyst software (AB Sciex). […] All LC-MS/MS acquisitions were performed with an independent standard curve for each group of analytes and for each individual run. All solvents utilized were of Optima LC-MS Grade (Fisher Scientific). Data was generated from n ≥ 2 individual animals per compound per study condition or dose.

Data set [2] deals with Target kinase isoforms (PI3K, mTOR, RAF, MEK) (Homo sapiens, UniProt P42336). The experiment in a line: Target kinase isoforms 10-point IC50 determination (Supplementary Fig. 7). The conditions noted are these: PI3K alpha. In kind it is biochemical. An excerpt:
(§1) The average percent kinase inhibition from replicate data was ranked low to high, converted to a compatible identifier format, then input into Coral Human Kinome Visualization software for presentation analysis. […] Scaling of evolutionary distance for PI kinases is only relative and is based on literature analysis[62],[63]. Average percent kinome inhibition values from replicate data are supplied in Source Data file. […] Corrected data was normalized to vehicle treated control values, and dose response percent kinase activity was analyzed by non-linear regression for determination of IC50 values.

Data set [3] has as its target Target kinase isoforms (PI3K, mTOR, RAF, MEK) (Homo sapiens, UniProt P42338). The description is as above. In kind it is biochemical. The conditions noted are these: PI3K beta.
Excerpt: as §1

Data set [4] addresses Target kinase isoforms (PI3K, mTOR, RAF, MEK) (Homo sapiens, UniProt P48736). The data set is described as above. The note with it: PI3K gamma. In kind it is biochemical.
Excerpt: as §1

For data set [5], the target named is T1, Target kinase isoforms (PI3K, mTOR, RAF, MEK) (Homo sapiens, UniProt O00329).
T1 sequence (O00329 1-1044): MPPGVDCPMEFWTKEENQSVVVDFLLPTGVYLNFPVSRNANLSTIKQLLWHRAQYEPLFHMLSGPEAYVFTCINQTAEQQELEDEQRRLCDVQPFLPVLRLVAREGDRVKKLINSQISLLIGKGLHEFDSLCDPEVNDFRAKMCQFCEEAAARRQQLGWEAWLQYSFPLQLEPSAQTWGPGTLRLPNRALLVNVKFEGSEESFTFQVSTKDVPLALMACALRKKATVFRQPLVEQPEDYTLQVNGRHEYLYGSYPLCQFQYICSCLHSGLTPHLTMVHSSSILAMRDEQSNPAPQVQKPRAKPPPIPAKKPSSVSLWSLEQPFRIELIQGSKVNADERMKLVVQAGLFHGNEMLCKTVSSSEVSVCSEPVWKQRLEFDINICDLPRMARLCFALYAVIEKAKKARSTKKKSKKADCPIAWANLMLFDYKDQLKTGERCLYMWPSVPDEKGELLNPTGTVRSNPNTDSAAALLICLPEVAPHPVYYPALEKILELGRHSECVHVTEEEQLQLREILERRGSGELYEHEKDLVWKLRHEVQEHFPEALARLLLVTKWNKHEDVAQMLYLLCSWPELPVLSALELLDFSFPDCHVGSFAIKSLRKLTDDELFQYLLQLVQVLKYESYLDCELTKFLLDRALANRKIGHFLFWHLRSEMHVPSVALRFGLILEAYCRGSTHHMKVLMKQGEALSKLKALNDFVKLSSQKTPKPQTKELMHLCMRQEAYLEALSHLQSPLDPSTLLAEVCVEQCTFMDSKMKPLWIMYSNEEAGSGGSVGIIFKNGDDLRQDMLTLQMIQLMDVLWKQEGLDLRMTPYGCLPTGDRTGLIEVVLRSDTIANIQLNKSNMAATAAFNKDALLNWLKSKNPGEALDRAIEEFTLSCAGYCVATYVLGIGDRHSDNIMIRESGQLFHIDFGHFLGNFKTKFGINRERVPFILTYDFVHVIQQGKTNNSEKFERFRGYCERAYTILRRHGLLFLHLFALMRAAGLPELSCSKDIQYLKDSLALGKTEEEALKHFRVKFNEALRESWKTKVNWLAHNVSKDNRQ
Described as above. In kind it is biochemical. The note with it: PI3K delta.
Excerpt: as §1

The mark [6] stands for this setting: concentration 0.495 nM, 0.000495 µM.
The mark [7] stands for this setting: concentration 1.52 nM, 0.00152 µM.
The mark [8] stands for this setting: concentration 4.57 nM, 0.00457 µM.
Where [9] appears, read: concentration 0.0187 nM, 18.7 pM.

Target kinase isoforms (PI3K, mTOR, RAF, MEK) (Homo sapiens, UniProt P42336), sequence (P42336 whole entry, canonical isoform): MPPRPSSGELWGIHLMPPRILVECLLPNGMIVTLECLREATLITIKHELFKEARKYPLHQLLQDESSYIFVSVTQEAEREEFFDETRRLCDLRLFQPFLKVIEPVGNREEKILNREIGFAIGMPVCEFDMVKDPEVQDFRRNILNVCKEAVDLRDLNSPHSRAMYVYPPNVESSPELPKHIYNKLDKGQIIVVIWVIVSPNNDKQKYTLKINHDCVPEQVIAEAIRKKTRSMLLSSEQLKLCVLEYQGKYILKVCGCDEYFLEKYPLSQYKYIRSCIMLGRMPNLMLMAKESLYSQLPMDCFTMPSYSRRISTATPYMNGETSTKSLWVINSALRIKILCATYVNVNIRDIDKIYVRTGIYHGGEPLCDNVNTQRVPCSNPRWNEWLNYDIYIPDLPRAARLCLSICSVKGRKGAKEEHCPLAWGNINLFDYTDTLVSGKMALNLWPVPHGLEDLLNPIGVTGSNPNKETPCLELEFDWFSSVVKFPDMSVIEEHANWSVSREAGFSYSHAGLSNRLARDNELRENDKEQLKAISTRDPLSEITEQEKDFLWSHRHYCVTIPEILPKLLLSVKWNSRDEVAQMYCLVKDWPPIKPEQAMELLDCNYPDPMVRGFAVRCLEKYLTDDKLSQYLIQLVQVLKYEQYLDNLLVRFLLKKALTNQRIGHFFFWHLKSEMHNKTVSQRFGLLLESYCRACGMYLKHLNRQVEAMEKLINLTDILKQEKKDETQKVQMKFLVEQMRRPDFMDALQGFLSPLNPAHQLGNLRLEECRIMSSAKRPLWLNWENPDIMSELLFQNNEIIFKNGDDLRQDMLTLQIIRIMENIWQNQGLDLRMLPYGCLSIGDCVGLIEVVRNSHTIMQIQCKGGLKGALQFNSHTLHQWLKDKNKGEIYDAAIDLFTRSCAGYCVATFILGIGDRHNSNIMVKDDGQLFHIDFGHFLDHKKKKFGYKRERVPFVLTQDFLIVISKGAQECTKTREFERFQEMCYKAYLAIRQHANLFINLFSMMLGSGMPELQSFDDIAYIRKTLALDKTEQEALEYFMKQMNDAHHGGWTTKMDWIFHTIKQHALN
Target kinase isoforms (PI3K, mTOR, RAF, MEK) (Homo sapiens, UniProt P42338), sequence (P42338 whole entry, canonical isoform): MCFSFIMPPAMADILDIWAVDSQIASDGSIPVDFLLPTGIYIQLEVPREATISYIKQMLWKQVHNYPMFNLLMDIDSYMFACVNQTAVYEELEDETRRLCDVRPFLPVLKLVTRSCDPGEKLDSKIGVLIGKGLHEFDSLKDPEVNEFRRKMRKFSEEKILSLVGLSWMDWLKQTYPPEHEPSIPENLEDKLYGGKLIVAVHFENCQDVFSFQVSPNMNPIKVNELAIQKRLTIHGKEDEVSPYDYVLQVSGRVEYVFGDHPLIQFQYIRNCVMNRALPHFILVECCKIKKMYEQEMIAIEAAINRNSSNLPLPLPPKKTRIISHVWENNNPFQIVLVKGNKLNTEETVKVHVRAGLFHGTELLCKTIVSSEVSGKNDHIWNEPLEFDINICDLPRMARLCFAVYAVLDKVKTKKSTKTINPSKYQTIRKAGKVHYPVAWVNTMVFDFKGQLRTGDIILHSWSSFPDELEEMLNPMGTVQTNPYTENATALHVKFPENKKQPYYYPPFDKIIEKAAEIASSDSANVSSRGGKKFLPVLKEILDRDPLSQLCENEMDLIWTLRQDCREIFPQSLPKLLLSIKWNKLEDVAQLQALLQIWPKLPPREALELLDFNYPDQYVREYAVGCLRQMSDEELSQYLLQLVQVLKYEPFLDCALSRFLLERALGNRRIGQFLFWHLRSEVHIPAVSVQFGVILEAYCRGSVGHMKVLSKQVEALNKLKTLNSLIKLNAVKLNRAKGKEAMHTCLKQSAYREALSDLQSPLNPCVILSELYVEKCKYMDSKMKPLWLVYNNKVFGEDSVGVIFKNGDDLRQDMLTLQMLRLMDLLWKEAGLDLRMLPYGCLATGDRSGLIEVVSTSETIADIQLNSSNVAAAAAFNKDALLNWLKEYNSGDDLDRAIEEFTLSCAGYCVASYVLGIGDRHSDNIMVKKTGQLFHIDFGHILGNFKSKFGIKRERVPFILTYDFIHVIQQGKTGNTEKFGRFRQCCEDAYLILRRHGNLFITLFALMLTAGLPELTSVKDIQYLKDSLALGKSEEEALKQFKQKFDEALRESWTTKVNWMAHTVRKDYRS
Target kinase isoforms (PI3K, mTOR, RAF, MEK) (Homo sapiens, UniProt P48736), sequence (P48736 whole entry, canonical isoform): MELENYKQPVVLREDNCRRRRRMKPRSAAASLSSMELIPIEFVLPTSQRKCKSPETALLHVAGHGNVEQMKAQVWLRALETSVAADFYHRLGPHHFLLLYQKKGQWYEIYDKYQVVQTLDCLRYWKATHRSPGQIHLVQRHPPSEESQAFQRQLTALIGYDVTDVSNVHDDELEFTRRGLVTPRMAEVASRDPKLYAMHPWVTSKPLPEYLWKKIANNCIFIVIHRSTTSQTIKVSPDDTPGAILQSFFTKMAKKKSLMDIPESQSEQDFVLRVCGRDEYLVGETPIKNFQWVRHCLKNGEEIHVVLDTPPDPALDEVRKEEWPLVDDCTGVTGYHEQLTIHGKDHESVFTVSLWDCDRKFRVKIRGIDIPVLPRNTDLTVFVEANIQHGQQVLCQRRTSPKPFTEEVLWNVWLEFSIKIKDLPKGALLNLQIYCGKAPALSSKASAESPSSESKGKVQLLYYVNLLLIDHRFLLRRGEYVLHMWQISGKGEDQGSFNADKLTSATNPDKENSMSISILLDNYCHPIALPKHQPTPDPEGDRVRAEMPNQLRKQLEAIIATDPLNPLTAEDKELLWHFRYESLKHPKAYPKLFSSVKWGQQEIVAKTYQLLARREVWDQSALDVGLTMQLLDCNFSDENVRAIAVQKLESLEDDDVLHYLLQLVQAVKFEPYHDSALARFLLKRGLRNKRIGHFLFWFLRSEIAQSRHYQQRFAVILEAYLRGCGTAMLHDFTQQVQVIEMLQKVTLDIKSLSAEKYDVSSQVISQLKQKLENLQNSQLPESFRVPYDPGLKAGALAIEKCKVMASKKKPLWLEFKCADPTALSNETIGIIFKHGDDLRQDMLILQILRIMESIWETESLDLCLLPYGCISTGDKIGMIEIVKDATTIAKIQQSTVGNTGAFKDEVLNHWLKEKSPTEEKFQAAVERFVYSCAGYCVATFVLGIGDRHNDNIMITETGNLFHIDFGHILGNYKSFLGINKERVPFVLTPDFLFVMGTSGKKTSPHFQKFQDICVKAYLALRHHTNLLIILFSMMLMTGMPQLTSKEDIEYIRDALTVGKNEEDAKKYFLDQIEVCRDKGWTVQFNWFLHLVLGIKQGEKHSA

Regarding `COCCOCCOCCOCCONC(=O)c1ccc(F)c(F)c1Nc1ccc(I)cc1F` [LP5-38], the “uptake in the mesenteric lymph nodes compared to LP5-37” value in data set [1] (4 h after oral 100 mg kg^−1) is “reduced uptake”.
Turning to `O=C(NOCCOCCOCCOCCONC(=O)c1ccc(F)c(F)c1Nc1ccc(I)cc1F)c1ccc(F)c(F)c1Nc1ccc(I)cc1F` [LP5-37], the “mesenteric lymph node levels versus blood” value in data set [1] (4 h after oral 400 mg kg^−1) was “significantly higher than in blood”.
`COc1ncc(-c2ccc3nccc(-c4ccnnc4)c3c2)cc1NS(=O)(=O)c1ccc(F)cc1F` [GSK2126458]: the figures for the activity at 670 fM in data set [2] (concentration 0.000670 nM) and in data set [5] (concentration 0.00067 nM) were 105% and 113%, respectively. For the same compound, the “Kinase Activity (%) PI3K alpha” value in data set [2] (concentration 0.00209 nM, 2.09 pM) is 101%; in data set [2] (concentration 0.0188 nM, 18.8 pM) it was 89%; in data set [2] (concentration 0.0564 nM, 56.4 pM), 75%; in data set [2] (setting [6]), 17% and 18% and 16% and 20%; in data set [2] (setting [7]), 5% and 6%; in data set [2] (setting [8]), 1%. In addition, the “Kinase Activity (%) PI3K alpha” value in data set [2] (concentration 10000 nM, 10 µM) was determined as 1%. Besides, the activity at 18.8 pM in data set [2] (concentration 0.0188 nM) worked out at 91%. Further, the activity at 56.4 pM in data set [2] (concentration 0.0564 nM) turned out to be 73%. Further, the activity at 0.000495 µM in data set [2] (concentration 0.495 nM) came out at 15%. Also, the activity at 0.00152 µM in data set [2] (concentration 1.52 nM) worked out at 4%; in data set [4] (concentration 1.52 nM), 19%. Also, the activity at 0.0412 µM stood at 0% in data set [2] (concentration 41.2 nM), 9% in data set [3] (concentration 41.2 nM), 0% in data set [4] (concentration 41.2 nM) and 4% in data set [5] (concentration 41.2 nM). Moreover, the activity at 0.123 µM came out at 0% in data set [2] (concentration 123 nM), 9% in data set [3] (concentration 123 nM), 0% in data set [4] (concentration 123 nM) and 4% in data set [5] (concentration 123 nM). Besides, the figures for the activity at […] in data set [2] (concentration 370 nM), in data set [3] (concentration 370 nM) and in data set [5] (concentration 370 nM) were 0%, 12% and 4%, respectively. For the same compound, the activity at 1.11 µM in data set [2] (concentration 1110 nM) was 0%; in data set [3] (concentration 1110 nM), 9%; in data set [4] (concentration 1110 nM) it was 0%; in data set [5] (concentration 1110 nM), 4%. Besides, the activity at 18.7 pM was 103% in data set [3] (concentration 0.0187 nM) and 97% in data set [5] (concentration 0.0187 nM). For the same compound, the “Kinase Activity (%) PI3K beta” value in data set [3] (setting [9]) is 108%; in data set [3] (concentration 0.0562 nM, 56.2 pM), 106%; in data set [3] (setting [6]), 72% and 62% and 60% and 71% and 65% and 84%; in data set [3] (setting [7]) it was 48% and 51% and 47% and 67% and 62%; in data set [3] (concentration 41.2 nM, 0.0412 µM), 7% and 8% and 10%; in data set [3] (concentration 123 nM, 0.123 µM), 6% and 10% and 8% and 7%. Also, the “Kinase Activity (%) PI3K beta” value is recorded as 8% in data set [3] (concentration 1110 nM, 1.11 µM) and 10% in data set [3] (concentration 3330 nM, 3.33 µM). The activity at 56.2 pM came out at 110% in data set [3] (concentration 0.0562 nM) and 81% in data set [5] (concentration 0.0562 nM). For the same compound, the activity at 3.33 µM in data set [3] (concentration 3330 nM) was determined as 11%; in data set [4] (concentration 3330 nM) it was 0%; in data set [5] (concentration 3330 nM) it was 5%. Moreover, the activity at 2.04 pM in data set [3] (concentration […]) amounted to 107%; in data set [5] (concentration […]), 103%. In addition, the “Kinase Activity (%) PI3K gamma” value in data set [4] (setting [7]) was 24% and 22% and 20% and 21%; in data set [4] (concentration 370 nM, […]), 1%; in data set [4] (concentration 10000 nM, 10 µM), 5%; in data set [4] (concentration […], 6.09 pM) it was 103%. The “Kinase Activity (%) PI3K delta” value is 102% in data set [5] (concentration 0.00067 nM, 670 fM); 108% in data set [5] (setting [9]); 16% and 14% and 11% and 8% in data set [5] (setting [6]); 6% in data set [5] (setting [8]); 6% in data set [5] (concentration 1110 nM, 1.11 µM); 6% and 7% in data set [5] (concentration 3330 nM, 3.33 µM). The “Kinase Activity (%) PI3K delta” value is 7% and 0% in data set [5] (concentration 10000 nM, 10 µM); 105% in data set [5] (concentration […], 2.04 pM); 106% in data set [5] (concentration […], 6.09 pM). In data set [5] (concentration […]), the activity at 6.09 pM came out at 104%.
